These results are taken from patent US11077090B2, “Compounds and compositions and uses thereof” (Sunovion Pharmaceuticals Inc., priority 2016, dated 2021).

In one assay the test system is male Sprague-Dawley rats. Put plainly: Stress induced hyperthermia (SIH) assay. Format: in vivo. Set-up: key: −: No change in Delta T ([…]T); +: Significant decrease in Delta T ([…]T) (P < 0.05 vs vehicle). The text has this:
Stress-induced hyperthermia (SIH), mediated by the autonomic nervous system, is well known to occur prior to and during exposure to stress and/or anxiety-inducing situations. In many human anxiety disorders, it occurs as an integral part of the pathology and is often considered a representative symptom of the disease, e.g. in generalized anxiety disorder as defined in DSM-IV. In rodents, acute administration of anxiolytic drugs, such as buspirone or chlordiazepoxide (CDP), are known to reduce the SIH response to stressors such as handling, noise, heat, novelty, or pain. The test involves two measures of rectal temperature repeated in the same animal with a 10-minute interval. On the day prior to testing, male Sprague-Dawley rats from Envigo (n=10 per group) were brought to the experimental room approximately one hour before scheduled lights out and singly housed overnight with food and water ad libitum. On the morning of the experiment, animals were first injected with either vehicle or test compound orally by gavage, or CDP (10 mg/kg, i.p.). One hour following injection, each animal was removed from the holding cage and held in a supine position while the rectal temperature was measured by slowly inserting a rectal probe into the animal's rectum at a length of approximately 0.5 cm. The rectal probe was attached to a PhysiTemp digital thermometer (Fisher Scientific) which provides temperature readings at 0.1° C. accuracy. The probe remained inside the animal for approximately 5 seconds or until body temperature reaches stability. This temperature was recorded as the baseline rectal temperature (T1). The animal was immediately placed back to the holding cage and after a 10-min interval the second rectal temperature (T2) was taken using the same procedure as in measuring T1. Before each insertion, the rectal probe was cleaned with an alcohol pad and lubricated with sterile K-Y jelly. All SIH studies were conducted between 8:00-11:00 a.m. The SIH response was calculated as the difference in temperature between the second and first temperature reading (Delta T, […]T). A reduction in […]T relative to the vehicle condition indicates an anxiolytic drug-like response.

The subject of assay [1] is extracellular concentrations of neurotransmitters (DA, 5-HT, NE, ACh) in the prefrontal cortex (PFC). Put plainly: In vivo microdialysis of the prefrontal cortex. Set-up: key: −: No change in extracellular concentration (P < 0.05 vs vehicle); +: Significant increase in extracellular concentration (P < 0.05 vs vehicle). Conditions: mice. From the text: (§1) In vivo microdialysis is a biological sampling technique used to evaluate the extracellular concentrations of neurotransmitters in specific brain regions following administration of a test compound to animals. Dysfunctions of brain neurotransmitter systems, such as dopamine (DA), norepinephrine (NE), serotonin (5-HT) and/or acetylcholine (ACh), have been linked to cognitive deficits (e.g., memory impairment, inattention, etc.), which may be observed in human aging, Alzheimer's disease (AD) and Attention Deficit Hyperactivity Disorder (ADHD). Drugs that increase extracellular concentrations of DA, NE, 5-HT and/or ACh in the prefrontal cortex (PFC), such as donepezil and methylphenidate, can reverse cognitive deficits in humans and animals.
(§2) Adult male C57Bl/6 mice (n=6 per group) from Jackson Laboratories were anesthetized using isoflurane (2%, 800 mL/min O2). Bupivacaine/epinephrine was used for local anesthesia and carprofen was used for peri-/post-operative analgesia. The animals were placed in a stereotaxic frame (Kopf instruments, USA) and I-shaped microdialysis probes (polyacrylonitril membrane, BrainLink, the Netherlands) were inserted into the PFC (2 mm exposed membrane; coordinates for the tips of the probes: posterior (AP)=+2.0 mm to bregma, lateral (L)=−0.5 mm to midline and ventral (V)=−3.3 mm to dura, the toothbar set at 0.0 mm) and the NAcc (coordinates for the tips of the probes: posterior (AP)=+0.8 mm to bregma, lateral (L)=+0.9 mm to midline and ventral (V)=−4.2 mm to dura, the toothbar set at 0.0 mm (Paxinos and Franklin, 2001)). After surgery, animals were housed individually in cages and provided food and water ad libitum. In vivo microdialysis experiments were performed one day after surgery. On the day of the experiment, the microdialysis probes were connected with flexible PEEK tubing to a microperfusion pump (Harvard PHD 2000 Syringe pump, Holliston, Mass. or similar). Microdialysis probes were perfused with artificial cerebrospinal fluid (aCSF) containing 147 mM NaCl, 3.0 mM KCl, 1.2 mM CaCl2 and 1.2 mM MgCl2, at a flow rate of […]. Microdialysis samples were collected for 30 minute periods by an automated fraction collector (820 Microsampler, Univentor, Malta or similar) into polystyrene mini-vials already containing 15 μL of 0.02 M formic acid (FA) and 0.04% ascorbic acid in ultrapurified H2O. Four basal samples were collected before the administration of vehicle or test compound (i.p., 5 mL/kg injection volumes). Samples were collected for an additional 240 min following vehicle or compound administration. All the dialysis samples were stored at −80° C. awaiting analysis. After the experiment, the mice were sacrificed and brain tissue was collected for probe verification. Each dialysis sample was analyzed for concentrations of DA, NE, 5-HT and ACh as determined by HPLC with tandem mass spectrometry (MS/MS) detection using labeled isotopes of the analytes of interest as internal standards. Data was expressed as a percentage of basal output, calculated by dividing each post-dose time point with the average basal output=100%. An increase in the post-dose percent basal output of DA, NE, 5-HT and/or ACh in the PFC relative to the vehicle condition indicates a potential cognition-enhancing drug-like response. Graphical representations of the observed changes in neurotransmitter concentrations are shown in the indicated Figures.

The subject of another assay is Male C57Bl/6J mice. Put plainly: Marble burying test. The assay is classed as in vivo. Set-up: key: −: No reduction in number of marbles buried; +: Significant reduction in number of marbles buried (P < 0.05 vs vehicle). The procedure: The marble burying assay is used to evaluate the anxiolytic activity of a test compound. After placement in a novel cage containing glass marbles, mice will bury the marbles. Acute administration of anxiolytic agents, as well as antidepressants, decrease this activity at non-sedating doses. Male C57Bl/6J mice from Jackson Laboratories were used in this study and were acclimatized to the experimental room for at least 1 hour prior to testing. Mice (n=10 per group) were administered sterile water or test compound intraperitoneally (i.p.) or orally by gavage (p.o.), or the positive control chlordiazepoxide (15 mg/kg, i.p.), in 10 mL/kg injection volumes, and returned to their home cages for a 30-minute pretreatment period. The mice were then placed individually in clean cages, containing hard wood bedding and twenty black marbles placed in spaced rows of 4×5. After a 30-minute test session, the number of buried marbles was counted. A marble was considered buried if it was pushed at least two thirds into the bedding. Locomotor activity was monitored by measuring the distance traveled using an overhead camera and Video Tracker Software (ViewPoint Life Sciences Software, France). A reduction in the number of marbles buried relative to the vehicle condition indicates an anxiolytic drug-like effect.

Assay [2] has as its system extracellular concentrations of neurotransmitters (DA, 5-HT, NE, ACh) in the nucleus accumbens (NAcc). Kind of assay: In vivo microdialysis of the nucleus accumbens. Set-up: key: −: No change in extracellular concentration (P < 0.05 vs vehicle); +: Significant increase in extracellular concentration (P < 0.05 vs vehicle). As to conditions: mice.
Excerpt: as §1, §2

The test system of the next assay is compound-treated mice. Put plainly: Neuropharmacological assay (SmartCube): behavioral activity signature and minimal effective dose. Format: in vivo. A digest of the protocol: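 Mice dosed i.p. 15 min before test, compound in N-methyl-2-pyrrolidone/PEG/propylene glycol, 3 doses; video-captured behavior matched to reference-drug signatures, giving per-class probabilities at most efficacious dose. MED from doses typically 0.3–30 mpk, defined as lowest dose with ≥50% total activity.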

[3] abbreviates: i.p. 15 min before test, most efficacious dose(s).

In the case of `C[C@@H]1OCc2ccccc2[C@H]1N` (single isomer, unassigned) [Compound 152], in the assay with male Sprague-Dawley rats (0.3 mg/kg PO), the “Delta T ([…]T)” value is given as “−”. In assay [1] (10 mg/kg IP), the “PFC [5-HT] (FIG. 2)” value is reported as “+”, the “PFC [ACh] (FIG. 4)” value is given as “+”, the “PFC [DA] (FIG. 1)” value is recorded as “+” and the “PFC [NE] (FIG. 3)” value was “+”. In the assay on Male C57Bl/6J mice (1 mg/kg (i.p.)), the “Marbles Buried” value was “−”. Also, in assay [2] (10 mg/kg IP), the “NAcc [5-HT] (FIG. 6)” value is given as “+”, the “NAcc [ACh] (FIG. 8)” value is on record as “−”, the “NAcc [DA] (FIG. 5)” value is given as “−” and the “NAcc [NE] (FIG. 7)” value is “+”.

Take `Cc1cccc2c1[C@@H](N)[C@@H](C)OC2` (single isomer, unassigned) [Compound 170]: the “Delta T ([…]T)” value with male Sprague-Dawley rats (3 mg/kg PO) was “−”. In assay [1] (30 mg/kg IP), the “PFC [5-HT] (FIG. 2)” value is “−”, the “PFC [ACh] (FIG. 4)” value is on record as “−”, the “PFC [DA] (FIG. 1)” value is recorded as “+” and the “PFC [NE] (FIG. 3)” value is reported as “+”. Also, the “Marbles Buried” value in the assay with Male C57Bl/6J mice (1 mg/kg (i.p.)) is “−”. In addition, in assay [2] (30 mg/kg IP), the “NAcc [5-HT] (FIG. 6)” value is “−”, the “NAcc [ACh] (FIG. 8)” value is “−”, the “NAcc [DA] (FIG. 5)” value is recorded as “−” and the “NAcc [NE] (FIG. 7)” value is “+”.

In the case of `Cc1ccc2c(c1)[C@H](N)[C@H](C)OC2` [Compound 157], the “Delta T ([…]T)” value in the assay with male Sprague-Dawley rats (1 mg/kg PO) was “−”. Moreover, in assay [1] (30 mg/kg IP), the “PFC [5-HT] (FIG. 2)” value is given as “+”, the “PFC [ACh] (FIG. 4)” value was “−”, the “PFC [DA] (FIG. 1)” value is given as “+” and the “PFC [NE] (FIG. 3)” value is “+”. For the same molecule, in the assay with Male C57Bl/6J mice (1 mg/kg (i.p.)), the “Marbles Buried” value is on record as “−”. In assay [2] (30 mg/kg IP), the “NAcc [5-HT] (FIG. 6)” value is “−”, the “NAcc [ACh] (FIG. 8)” value was “−”, the “NAcc [DA] (FIG. 5)” value is on record as “−” and the “NAcc [NE] (FIG. 7)” value is given as “+”.

As to `Cc1ccc2c(c1)[C@H](N)[C@H](C)OC2` [Example 157], the “Delta T ([…]T)” value in the assay on male Sprague-Dawley rats (3 mg/kg PO) is recorded as “+”. Further, the “Delta T ([…]T)” value in the assay with male Sprague-Dawley rats (10 mg/kg PO) is “+”. In the assay on male Sprague-Dawley rats (30 mg/kg PO), the “Delta T ([…]T)” value is “+”. Besides, the “Potency: minimal effective dose (MED), binned” value in the assay with compound-treated mice (MED = dose having 50% or more total activity) is “A (≤3 mpk)”. Also, in the assay with compound-treated mice (setting [3]), the “AD: ADHD (probability of activity signature)” value was “+ (LOQ ≤ + <5%)”, the “AG: analgesic (probability of activity signature)” value is recorded as “++ (5% ≤ ++ <25%)”, the “AX: anxiolytic (probability of activity signature)” value is recorded as “++ (5% ≤ ++ <25%)” and the “CE: cognitive enhancer (probability of activity signature)” value is on record as “++ (5% ≤ ++ <25%)”. Moreover, in the assay with compound-treated mice (setting [3]), the “DP: anti-depressant (probability of activity signature)” value is given as “++ (5% ≤ ++ <25%)”, the “MS: mood stabilizer (probability of activity signature)” value is “++ (5% ≤ ++ <25%)”, the “PS: anti-psychotic (probability of activity signature)” value is “+++ (25% ≤ +++ <50%)” and the “SD: sedative hypnotic (probability of activity signature)” value is listed as “+ (LOQ ≤ + <5%)”. Besides, the “UN: uncharacterized CNS activity (probability of activity signature)” value in the assay with compound-treated mice (setting [3]) is recorded as “++++ (50% ≤ ++++)”. In addition, the “Marbles Buried” value with Male C57Bl/6J mice (3 mg/kg (i.p.)) was “−”. Further, the “Marbles Buried” value with Male C57Bl/6J mice (10 mg/kg (i.p.)) is “+”.
